Source: patent US11235976B2, “Nanocarbon-iron composite system as well as composition, preparation method and use thereof” (Chongqing Lummy Pharmaceutical Co., LTD, priority 2017, dated 2022)

Assays:
Assay in all cases: Cell experiment, cell survival rate
Type in all cases: cell-based
Conditions in all cases: 48 h
[1] = system: A549 lung cancer cells
Protocol: (§1) Cells growing in a log phase are collected, the concentration of the cell suspension is adjusted, 100 μL of cell suspension is added to each well and the cells are plated (edge wells are filled with sterile PBS) at a density of 1×10^3-10^4 cells/well. The cells are incubated for 24 hours at 37° C. under the condition of 5% CO2, a nanocarbon-iron solution having a concentration gradient (nanocarbon content: 125, 62.5, 15.63 and 3.91 μg/mL; and ferric ion content: 13.65, 6.83, 1.71 and 0.43 μg/mL) is added, and three sub-wells are set. Then the cells are incubated for 48 hours at 37° C. under the condition of 5% CO2. 10 μL of CCK8 solution is added to each well and then the cells are continuously incubated for 2 hours. The absorbance of each well is measured at OD=450 nm with the microplate reader. In addition, a negative control group, nanocarbon control groups having the same concentration and iron preparation control groups having the same concentration are set.
as §1, with “and 1” for “100”, “of a 6-well plate” for “and the cells are plated (edge wells are filled with sterile PBS)”, “3×10^4” for “1×10^3-10^4”, “1.71,” for “1.71 and”, “The” for “10 μL of CCK8 solution is added to each well and then the”, “trypsinized and counted.” for “continuously incubated for 2 hours. The absorbance of each well is measured at OD=450 nm with the microplate reader.”

[2] = system: HCT116 colon cancer cells
Protocol: as §1
as §1, with “and 1” for “100”, “of a 6-well plate” for “and the cells are plated (edge wells are filled with sterile PBS)”, “3×10^4” for “1×10^3-10^4”, “1.71,” for “1.71 and”, “The” for “10 μL of CCK8 solution is added to each well and then the”, “trypsinized and counted.” for “continuously incubated for 2 hours. The absorbance of each well is measured at OD=450 nm with the microplate reader.”

[3] = system: Hela cervical cancer cells
Protocol: as §1
as §1, with “and 1” for “100”, “of a 6-well plate” for “and the cells are plated (edge wells are filled with sterile PBS)”, “3×10^4” for “1×10^3-10^4”, “1.71,” for “1.71 and”, “The” for “10 μL of CCK8 solution is added to each well and then the”, “trypsinized and counted.” for “continuously incubated for 2 hours. The absorbance of each well is measured at OD=450 nm with the microplate reader.”

[4] = system: MDA-MB-231 breast cancer cells
Protocol: as §1
as §1, with “and 1” for “100”, “of a 6-well plate” for “and the cells are plated (edge wells are filled with sterile PBS)”, “3×10^4” for “1×10^3-10^4”, “1.71,” for “1.71 and”, “The” for “10 μL of CCK8 solution is added to each well and then the”, “trypsinized and counted.” for “continuously incubated for 2 hours. The absorbance of each well is measured at OD=450 nm with the microplate reader.”

[5] = system: SGC-7901 stomach cancer cells
Protocol: as §1
as §1, with “and 1” for “100”, “of a 6-well plate” for “and the cells are plated (edge wells are filled with sterile PBS)”, “3×10^4” for “1×10^3-10^4”, “1.71,” for “1.71 and”, “The” for “10 μL of CCK8 solution is added to each well and then the”, “trypsinized and counted.” for “continuously incubated for 2 hours. The absorbance of each well is measured at OD=450 nm with the microplate reader.”

[6] = system: SKOV3 ovarian cancer cells
Protocol: as §1
as §1, with “and 1” for “100”, “of a 6-well plate” for “and the cells are plated (edge wells are filled with sterile PBS)”, “3×10^4” for “1×10^3-10^4”, “1.71,” for “1.71 and”, “The” for “10 μL of CCK8 solution is added to each well and then the”, “trypsinized and counted.” for “continuously incubated for 2 hours. The absorbance of each well is measured at OD=450 nm with the microplate reader.”

[7] = iron preparation alone 0.43 μg/mL
[8] = iron preparation alone 1.71 μg/mL
[9] = iron preparation alone 6.83 μg/mL
[10] = iron preparation alone 13.65 μg/mL

Substance: ferrous sulfate
- Cell Survival Rate [1, 7]: 100%
- Cell Survival Rate [1, 8]: 94.18%
- Cell Survival Rate [1, 9]: 95.12%
- Cell Survival Rate [1, 10]: 100%
- Cell Survival Rate [2, 7]: 98.32%
- Cell Survival Rate [2, 8]: 100%
- Cell Survival Rate [2, 9]: 97.68%
- Cell Survival Rate [2, 10]: 94.07%
- Cell Survival Rate [3, 7]: 100%
- Cell Survival Rate [3, 8]: 100%
- Cell Survival Rate [3, 9]: 100%
- Cell Survival Rate [3, 10]: 93.99%
- Cell Survival Rate [4, 7]: 100%
- Cell Survival Rate [4, 8]: 100%
- Cell Survival Rate [4, 9]: 100%
- Cell Survival Rate [4, 10]: 100%
- Cell Survival Rate [5, 7]: 100%
- Cell Survival Rate [5, 8]: 93.78%
- Cell Survival Rate [5, 9]: 98.42%
- Cell Survival Rate [5, 10]: 100%
- Cell Survival Rate [6, 7]: 97.89%
- Cell Survival Rate [6, 8]: 100%
- Cell Survival Rate [6, 9]: 95.78%
